# According to patent US20160264536A1, “HETEROCYCLIC COMPOUND” (Takeda Pharmaceutical Company Limited, priority 2013, published 2016):
# Molecular target: T1, human PDE2A3 enzyme (Homo sapiens, UniProt O00408)
# T1 construct: Human PDE2A3 full-length gene was transduced into Sf9; His-tag; made in house; host or cells: Sf9 insect cells
# Test: PDE enzyme inhibitory assay (SPA, [3H]cGMP substrate)
# Assay type: biochemical
# Conditions: compound 1 μM, substrate [3H]cGMP 77 nM, read-out: inhibitory rate (%) (1 μM)
# Experimental: PDE Enzyme Inhibitory Assay
# Human PDE2A3 full-length gene was transduced into Sf9, and human PDE2A3 enzyme was purified by His-tag affinity column and gel filtration. The enzyme was stored at −70° C. until use. PDE activity was measured by using a SPA (Scintillation Proximity Assay) (GE Healthcare). To evaluate the inhibitory activity of the compound, 10 μl of serial diluted compounds were reacted with 20 μl of PDE enzyme in assay buffer (50 mM HEPES-NaOH, 8.3 mM MgCl2, 1.7 mM EGTA, 0.1% BSA (pH 7.4)) for 30 min at room temperature. Final concentration of DMSO in the reaction solution was 1%. Compounds were tested in duplicate in 96-well half-area plates (Corning) or 384-well OptiPlate (PerkinElmer). To start the reaction, 10 μl of substrate [^3H]cGMP (final concentration 77 nM, PerkinElmer) was added to a total volume of 40 μl. After reaction for 60 min at room temperature, 20 μl of 20 mg/mL yttrium SPA beads containing zinc sulfate was added to terminate the reaction. After being settled for further 1 hour, the assay plates were counted in a scintillation counter (PerkinElmer) to allow calculation of inhibition rate. Inhibition rate was calculated on the basis of 0% control wells with enzyme and DMSO, and 100% control wells without enzyme.
# T1 sequence (O00408 whole entry): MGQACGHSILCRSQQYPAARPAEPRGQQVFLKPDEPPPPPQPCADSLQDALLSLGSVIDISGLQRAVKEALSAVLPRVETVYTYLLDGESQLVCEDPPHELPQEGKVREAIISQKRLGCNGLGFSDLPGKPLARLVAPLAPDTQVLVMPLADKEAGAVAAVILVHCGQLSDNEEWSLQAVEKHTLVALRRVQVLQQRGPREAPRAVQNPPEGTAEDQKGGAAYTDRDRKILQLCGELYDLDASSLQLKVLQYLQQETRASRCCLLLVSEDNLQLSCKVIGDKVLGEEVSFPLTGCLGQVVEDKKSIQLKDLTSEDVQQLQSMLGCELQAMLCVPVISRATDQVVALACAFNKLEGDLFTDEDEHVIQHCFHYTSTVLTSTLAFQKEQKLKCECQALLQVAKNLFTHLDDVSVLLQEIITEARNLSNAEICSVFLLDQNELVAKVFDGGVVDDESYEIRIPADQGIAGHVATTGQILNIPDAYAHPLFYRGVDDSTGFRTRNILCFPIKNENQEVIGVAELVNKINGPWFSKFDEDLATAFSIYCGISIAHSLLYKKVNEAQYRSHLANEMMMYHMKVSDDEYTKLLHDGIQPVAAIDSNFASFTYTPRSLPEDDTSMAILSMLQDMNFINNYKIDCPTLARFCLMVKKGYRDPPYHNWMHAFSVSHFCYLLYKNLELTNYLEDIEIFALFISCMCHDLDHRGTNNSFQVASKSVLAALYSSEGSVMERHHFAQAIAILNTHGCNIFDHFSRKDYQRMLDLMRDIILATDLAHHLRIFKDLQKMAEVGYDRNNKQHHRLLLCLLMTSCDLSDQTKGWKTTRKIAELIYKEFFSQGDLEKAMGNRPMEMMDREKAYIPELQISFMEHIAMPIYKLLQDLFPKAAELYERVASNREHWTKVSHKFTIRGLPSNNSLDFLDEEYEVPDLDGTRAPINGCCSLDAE
row,SMILES,inhibition at 1 µM [%]
1,"COC[C@@H](NC(=O)c1cc(=O)[nH]c(-c2ccoc2)n1)c1ccc(OC(F)(F)F)c(F)c1 [Example 122, N-((1S)-1-(3-fluoro-4-(trifluoromethoxy)phenyl)-2-methoxyethyl)-2-(3-furyl)-6-oxo-1,6-dihydropyrimidine-4-carboxamide]",102
2,"COCC(NC(=O)c1cc(=O)[nH]c(C2=CCCC2)n1)c1ccc(-n2cccn2)c(F)c1 (centres unmarked) [Example 129, 2-(cyclopent-1-en-1-yl)-N-(1-(3-fluoro-4-(1H-pyrazol-1-yl)phenyl)-2-methoxyethyl)-6-oxo-1,6-dihydropyrimidine-4-carboxamide]",98
3,"COC[C@@H](NC(=O)c1cc(=O)[nH]c(-c2ncc(OC)cc2OC)n1)c1ccc(OC(F)(F)F)c(F)c1 [Example 152, 2-(3,5-dimethoxypyridin-2-yl)-N-((1S)-1-(3-fluoro-4-(trifluoromethoxy)phenyl)-2-methoxyethyl)-6-oxo-1,6-dihydropyrimidine-4-carboxamide]",96
4,"COC[C@@H](NC(=O)c1cc(=O)[nH]c(C2(C)CC2)n1)c1ccc(OC(F)(F)F)cc1 [Example 153, N-((1S)-2-methoxy-1-(4-(trifluoromethoxy)phenyl)ethyl)-2-(1-methylcyclopropyl)-6-oxo-1,6-dihydropyrimidine-4-carboxamide]",100
5,"Cn1cc(-c2cncc(C(=O)N[C@@H](c3ccc(OC(F)(F)F)c(F)c3)C(C)(C)O)n2)cn1 [Example 158, N-((1S)-1-(3-fluoro-4-(trifluoromethoxy)phenyl)-2-hydroxy-2-methylpropyl)-6-(1-methyl-1H-pyrazol-4-yl)pyrazine-2-carboxamide]",97
6,"CO[C@H]1CCN(c2cncc(C(=O)N[C@@H](c3ccc(OC(F)(F)F)c(F)c3)C(C)(C)O)n2)C1 [Example 163, N-((1S)-1-(3-fluoro-4-(trifluoromethoxy)phenyl)-2-hydroxy-2-methylpropyl)-6-((3S)-3-methoxypyrrolidin-1-yl)pyrazine-2-carboxamide]",94
7,"COC[C@@H](NC(=O)c1cc(=O)[nH]c(C2=CCC(OC)C2)n1)c1ccc(OC(F)(F)F)c(F)c1 (stereo partly drawn) [Example 171, N-((1S)-1-(3-fluoro-4-(trifluoromethoxy)phenyl)-2-methoxyethyl)-2-(4-methoxycyclopent-1-en-1-yl)-6-oxo-1,6-dihydropyrimidine-4-carboxamide]",103
8,"COC[C@@H](NC(=O)c1cc(=O)[nH]c(-c2ncc(OC)cc2F)n1)c1ccc(OC(F)(F)F)c(F)c1 [Example 178, 2-(3-fluoro-5-methoxypyridin-2-yl)-N-((1S)-1-(3-fluoro-4-(trifluoromethoxy)phenyl)-2-methoxyethyl)-6-oxo-1,6-dihydropyrimidine-4-carboxamide]",99
9,"COC[C@@H](NC(=O)c1cc(=O)[nH]c(-c2ncc(OC)cc2C)n1)c1ccc(OC(F)(F)F)c(F)c1 [Example 179, N-((1S)-1-(3-fluoro-4-(trifluoromethoxy)phenyl)-2-methoxyethyl)-2-(5-methoxy-3-methylpyridin-2-yl)-6-oxo-1,6-dihydropyrimidine-4-carboxamide]",94
10,"COC[C@@H](NC(=O)c1cc(=O)[nH]c(-c2ncc(OC)cc2Cl)n1)c1ccc(OC(F)(F)F)c(F)c1 [Example 184, 2-(3-chloro-5-methoxypyridin-2-yl)-N-((1S)-1-(3-fluoro-4-(trifluoromethoxy)phenyl)-2-methoxyethyl)-6-oxo-1,6-dihydropyrimidine-4-carboxamide]",95
11,"COC[C@@H](NC(=O)c1cc(=O)[nH]c(-c2ncc(C3CC3)cc2F)n1)c1ccc(OC(F)(F)F)c(F)c1 [Example 185, 2-(5-cyclopropyl-3-fluoropyridin-2-yl)-N-((1S)-1-(3-fluoro-4-(trifluoro-methoxy)phenyl)-2-methoxyethyl)-6-oxo-1,6-dihydropyrimidine-4-carboxamide]",94
12,"COC[C@@H](NC(=O)c1cc(=O)[nH]c(-c2ncc(OC(F)F)cc2F)n1)c1ccc(OC(F)(F)F)c(F)c1 [Example 186, 2-(5-(difluoromethoxy)-3-fluoropyridin-2-yl)-N-((1S)-1-(3-fluoro-4-(trifluoro-methoxy)phenyl)-2-methoxyethyl)-6-oxo-1,6-dihydropyrimidine-4-carboxamide]",92
13,"CCOc1cnc(-c2nc(C(=O)N[C@H](COC)c3ccc(OC(F)(F)F)c(F)c3)cc(=O)[nH]2)c(OCC)c1 [Example 187, 2-(3,5-diethoxypyridin-2-yl)-N-((1S)-1-(3-fluoro-4-(trifluoromethoxy)phenyl)-2-methoxyethyl)-6-oxo-1,6-dihydropyrimidine-4-carboxamide]",105
14,"COC[C@@H](NC(=O)c1cc(=O)[nH]c(-c2ncc(C3CC3)cc2OC)n1)c1ccc(OC(F)(F)F)c(F)c1 [Example 189, 2-(5-cyclopropyl-3-methoxypyridin-2-yl)-N-((1S)-1-(3-fluoro-4-(trifluoro-methoxy)phenyl)-2-methoxyethyl)-6-oxo-1,6-dihydropyrimidine-4-carboxamide]",99
